Measurements reported in PubChem BioAssay (NCI).
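Results reflect a 48-hour exposure of cells in 96-well plates to compound at five concentrations. TGI marks complete inhibition of growth.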

Key:
Assay in all cases: NCI tumour cell line growth inhibition, 48 h
786-0 renal = test system: 786-0 renal
A498 renal = test system: A498 renal
A549 NSCLC = test system: A549 NSCLC
ACHN renal = test system: ACHN renal
BT-549 breast = test system: BT-549 breast
CAKI-1 renal = test system: CAKI-1 renal
CCRF-CEM leukemia = test system: CCRF-CEM leukemia
COLO 205 colon = test system: COLO 205 colon
DU-145 prostate = test system: DU-145 prostate
EKVX NSCLC = test system: EKVX NSCLC
HCC-2998 colon = test system: HCC-2998 colon
HCT-116 colon = test system: HCT-116 colon
HCT-15 colon = test system: HCT-15 colon
HL-60(TB) leukemia = test system: HL-60(TB) leukemia
HOP-62 NSCLC = test system: HOP-62 NSCLC
HOP-92 NSCLC = test system: HOP-92 NSCLC
HS 578T breast = test system: HS 578T breast
HT29 colon = test system: HT29 colon
IGROV1 ovarian = test system: IGROV1 ovarian
K-562 leukemia = test system: K-562 leukemia
KM12 colon = test system: KM12 colon
LOX IMVI melanoma = test system: LOX IMVI melanoma
M14 melanoma = test system: M14 melanoma
MCF7 breast = test system: MCF7 breast
MDA-MB-231 breast = test system: MDA-MB-231 breast
MDA-MB-435 = test system: MDA-MB-435
MDA-N = test system: MDA-N
MOLT-4 leukemia = test system: MOLT-4 leukemia
NCI-H226 lung = test system: NCI-H226 lung
NCI-H23 lung = test system: NCI-H23 lung
NCI-H460 lung = test system: NCI-H460 lung
NCI-H522 lung = test system: NCI-H522 lung
NCI/ADR-RES ovarian = test system: NCI/ADR-RES ovarian
OVCAR-3 ovarian = test system: OVCAR-3 ovarian
OVCAR-4 ovarian = test system: OVCAR-4 ovarian
OVCAR-5 ovarian = test system: OVCAR-5 ovarian
OVCAR-8 ovarian = test system: OVCAR-8 ovarian
PC-3 prostate = test system: PC-3 prostate
RPMI-8226 leukemia = test system: RPMI-8226 leukemia
RXF 393 renal = test system: RXF 393 renal
SF-268 CNS = test system: SF-268 CNS
SF-295 CNS = test system: SF-295 CNS
SF-539 CNS = test system: SF-539 CNS
SK-MEL-2 melanoma = test system: SK-MEL-2 melanoma
SK-MEL-28 melanoma = test system: SK-MEL-28 melanoma
SK-MEL-5 melanoma = test system: SK-MEL-5 melanoma
SK-OV-3 ovarian = test system: SK-OV-3 ovarian
SN12C renal = test system: SN12C renal
SNB-19 CNS = test system: SNB-19 CNS
SNB-75 CNS = test system: SNB-75 CNS
SR leukemia = test system: SR leukemia
SW-620 colon = test system: SW-620 colon
T-47D breast = test system: T-47D breast
TK-10 renal = test system: TK-10 renal
U251 CNS = test system: U251 CNS
UACC-257 melanoma = test system: UACC-257 melanoma
UACC-62 melanoma = test system: UACC-62 melanoma
UO-31 renal = test system: UO-31 renal

Work on `CCc1nc(N)nc(N)c1-c1ccc(Cc2ccccc2)c([N+](=O)[O-])c1` yielded a TGI (786-0 renal) of over 60.7 µM, a TGI (A498 renal) of over 74.2 µM and a TGI (A549 NSCLC) of over 70.7 µM. The TGI (ACHN renal) was over 61.2 µM, the TGI (BT-549 breast) was over 65.8 µM and the TGI (CAKI-1 renal) was over 100 µM. For the same molecule, the TGI (CCRF-CEM leukemia) was over 62 µM, the TGI (COLO 205 colon) was over 65.4 µM and the TGI (DU-145 prostate) was over 76.3 µM. The TGI (EKVX NSCLC) was over 58.8 µM, the TGI (HCC-2998 colon) was over 64.6 µM and the TGI (HCT-116 colon) was over 61.1 µM. The TGI (HCT-15 colon) was over 59.7 µM, the TGI (HL-60(TB) leukemia) was over 53.4 µM and the TGI (HOP-62 NSCLC) was over 69.7 µM. It also gave a TGI (HOP-92 NSCLC) of over 59.3 µM, a TGI (HS 578T breast) of over 67.1 µM and a TGI (HT29 colon) of over 61.5 µM. For the same molecule, the TGI (IGROV1 ovarian) was over 64.2 µM, the TGI (K-562 leukemia) was over 59.5 µM and the TGI (KM12 colon) was over 62.4 µM. The TGI (LOX IMVI melanoma) was over 80.9 µM, the TGI (M14 melanoma) was over 84.9 µM and the TGI (MCF7 breast) was over 65.1 µM. It also gave a TGI (MDA-MB-231 breast) of over 70.8 µM, a TGI (MDA-MB-435) of over 100 µM and a TGI (MDA-N) of over 81.8 µM. The TGI (MOLT-4 leukemia) was over 63.1 µM, the TGI (NCI-H226 lung) was over 68.9 µM and the TGI (NCI-H23 lung) was over 60.4 µM. It also gave a TGI (NCI-H460 lung) of over 60.8 µM, a TGI (NCI-H522 lung) of over 35.8 µM and a TGI (NCI/ADR-RES ovarian) of over 62.8 µM. For the same molecule, the TGI (OVCAR-3 ovarian) was over 76 µM, the TGI (OVCAR-4 ovarian) was over 93.3 µM and the TGI (OVCAR-5 ovarian) was over 100 µM. For the same molecule, the TGI (OVCAR-8 ovarian) was over 62.1 µM, the TGI (PC-3 prostate) was over 100 µM and the TGI (RPMI-8226 leukemia) was over 54.3 µM. For the same molecule, the TGI (RXF 393 renal) was over 84.3 µM, the TGI (SF-268 CNS) was over 56.2 µM and the TGI (SF-295 CNS) was over 65.5 µM. It also gave a TGI (SF-539 CNS) of over 62.4 µM, a TGI (SK-MEL-2 melanoma) of over 100 µM and a TGI (SK-MEL-28 melanoma) of over 100 µM. For the same molecule, the TGI (SK-MEL-5 melanoma) was over 100 µM, the TGI (SK-OV-3 ovarian) was over 83.6 µM and the TGI (SN12C renal) was over 100 µM. It also gave a TGI (SNB-19 CNS) of over 100 µM, a TGI (SNB-75 CNS) of over 60 µM and a TGI (SR leukemia) of 6.11 µM. The TGI (SW-620 colon) was over 64.2 µM, the TGI (T-47D breast) was over 85.4 µM and the TGI (TK-10 renal) was over 71.4 µM. It also gave a TGI (U251 CNS) of over 65.5 µM, a TGI (UACC-257 melanoma) of over 71 µM and a TGI (UACC-62 melanoma) of over 65.6 µM. The TGI (UO-31 renal) was over 54.5 µM.
Molecule `Cn1c(=O)c2c(ncn2Cc2ccc(O)c([N+](=O)[O-])c2)n(C)c1=O` has a TGI (786-0 renal) of over 100 µM, a TGI (A498 renal) of over 100 µM and a TGI (A549 NSCLC) of over 100 µM. The TGI (ACHN renal) was over 100 µM, the TGI (BT-549 breast) was over 100 µM and the TGI (CAKI-1 renal) was over 100 µM. It also gave a TGI (CCRF-CEM leukemia) of over 100 µM, a TGI (COLO 205 colon) of over 100 µM and a TGI (DU-145 prostate) of over 100 µM. It also gave a TGI (EKVX NSCLC) of over 100 µM, a TGI (HCT-116 colon) of over 100 µM and a TGI (HCT-15 colon) of over 100 µM. It also gave a TGI (HL-60(TB) leukemia) of over 100 µM, a TGI (HOP-62 NSCLC) of over 100 µM and a TGI (HS 578T breast) of over 100 µM. The TGI (HT29 colon) was over 100 µM, the TGI (IGROV1 ovarian) was over 100 µM and the TGI (K-562 leukemia) was over 100 µM. It also gave a TGI (KM12 colon) of over 100 µM, a TGI (LOX IMVI melanoma) of over 100 µM and a TGI (M14 melanoma) of over 100 µM. It also gave a TGI (MCF7 breast) of over 100 µM, a TGI (MDA-MB-231 breast) of over 100 µM and a TGI (MDA-MB-435) of over 100 µM. For the same molecule, the TGI (MDA-N) was over 100 µM, the TGI (MOLT-4 leukemia) was over 100 µM and the TGI (NCI-H226 lung) was over 100 µM. It also gave a TGI (NCI-H23 lung) of over 100 µM, a TGI (NCI-H460 lung) of over 100 µM and a TGI (NCI-H522 lung) of over 100 µM. The TGI (NCI/ADR-RES ovarian) was over 100 µM, the TGI (OVCAR-3 ovarian) was over 100 µM and the TGI (OVCAR-4 ovarian) was over 100 µM. For the same molecule, the TGI (OVCAR-5 ovarian) was over 100 µM, the TGI (OVCAR-8 ovarian) was over 100 µM and the TGI (PC-3 prostate) was over 100 µM. The TGI (RPMI-8226 leukemia) was over 100 µM, the TGI (SF-268 CNS) was over 100 µM and the TGI (SF-295 CNS) was over 100 µM. For the same molecule, the TGI (SF-539 CNS) was over 100 µM, the TGI (SK-MEL-2 melanoma) was over 100 µM and the TGI (SK-MEL-28 melanoma) was over 100 µM. For the same molecule, the TGI (SK-MEL-5 melanoma) was over 100 µM, the TGI (SK-OV-3 ovarian) was over 100 µM and the TGI (SN12C renal) was over 100 µM. It also gave a TGI (SNB-19 CNS) of over 100 µM, a TGI (SNB-75 CNS) of over 100 µM and a TGI (SR leukemia) of over 100 µM. The TGI (SW-620 colon) was over 100 µM, the TGI (T-47D breast) was over 100 µM and the TGI (TK-10 renal) was over 100 µM. The TGI (U251 CNS) was over 100 µM, the TGI (UACC-257 melanoma) was over 100 µM and the TGI (UACC-62 melanoma) was over 100 µM. It also gave a TGI (UO-31 renal) of over 100 µM.
